As a reminder, the IC50 is the concentration at which inhibition is half-maximal. High values mean weaker potency in that assay, low ones greater potency in that assay. Usually inhibition stands for how much of the control response was suppressed.

The structures appear in SMILES notation.

Here are results for one compound from patent US10947202B2, “Sodium ion channel inhibitors and pharmaceutically acceptable salts and polymorphs thereof and uses thereof” (SHANGHAI HAIYAN PHARMACEUTICAL TECHNOLOGY CO., LTD., priority 2017, dated 2021).

One data set has as its target Nav1.8 (Homo sapiens, UniProt Q9Y5Y9). Description: Selectivity for other ion channels: Nav1.8. It is filed as cell-based.
In a further data set the target is hNav1.7 (Homo sapiens, UniProt Q15858). Description: Manual patch clamp experiment of hNav1.7 channel (CHO-hNav1.7 stable cell line). It is filed as cell-based. An excerpt: Patch voltage clamp electrophysiology allows for the direct measurement and quantification of current block of voltage-gated sodium channels (NaV's), and allows the determination of the time and voltage-dependence of block which has been interpreted as differential binding to the resting, open and inactivated states of the sodium channel to reflect the compound's inhibitory or activating effects (Hille, B., Journal of General Physiology (1977), 69: 497-515).
Representative compounds of the present disclosure were performed using a manual patch clamp experiment and the purpose of this study was to test the effect of compounds on this ion channel current on a stable cell line transfected with a specific ion channel using a manual patch clamp method, the used stable cell lines CHO-hNav1.7 and HEK-hNav1.5 were from Genionics and WuXi Apptec (Shanghai) respectively.
Manual patch clamp experimental program is as follows:
(1) Preparation of solutions and compounds: The whole cell patch clamp technique was used to record hNav1.7 and hNav1.5 currents. In the experiment, the composition of extracellular fluid (mM): HEPES: 5, NaCl: 40, KCl: CaCl2:1, MgCl2:1, CdCl2:0.1, TEA-Cl: 20. The pH was adjusted to 7.3 with NaOH and the osmotic pressure was adjusted to 310-320 mOsm with sucrose, filtered and stored at 4° C. The composition of the intracellular fluid (mM): HEPES: 10, NaCl: 10, CsOH: 5, CsF: 140, EGTA: 1. The pH was adjusted to 7.3 with CsOH and the osmotic pressure was adjusted to 280-290 mOsm with sucrose, filtered and stored at −20° C.
The positive control and the test compound were firstly dissolved in 100% DMSO (Sigma-Aldrich, D2650), configured as stock solution at a concentration (100 nM, 1000 nM).) The above stock solution was serially diluted with DMSO prior to the experiment, the solution was further diluted with extracellular solution to obtain the desired concentration of the test solution.
(2) Manual Patch Clamp Experiment: The cell suspension was added to a 35 mm petri dish and placed on an inverted microscope stage, the cells were perfused with an extracellular fluid and the flow rate was 1-2 mL/min after cell adherence. The glass microelectrode was pulled in two steps by a microelectrode puller with an inlet water resistance of 2-5 MΩ. A/D-D/A digital-analog conversion was performed by Digidata 1440 (Molecular Devices) and pCLAMP software (version 10.2, Molecular Devices) for stimulation and signal acquisition; the signal was amplified by patch clamp amplifier (Multiclamp 700B, Molecular Devices), filtering is 4 KHz.
Two different voltage stimulation procedures were used in the hNav1.7 and hNav1.5 manual patch clamp experiments.
One is the inactivation stimulation program, the clamp potential is set at V1/2 of the corresponding channel, ie about 50% of the channels are inactivated, then the voltage is applied to −120 mV for 50 ms, then depolarized to −10 mV for 20 ms leading to sodium current, and finally back to the clamp potential. This stimulation program can also be called channel state-dependent voltage stimulation program.
The other is the non-inactivation stimulation program, the clamp potential is maintained at −120 mV, voltage stimulation is given to −10 mV for 20 ms leading to sodium current, and finally back to the clamp potential. That is all channels have not experienced inactivation status, but activate directly from the resting state under the conditions of the stimulation program.
The time intervals of these two voltage stimulation program were 10 s. The inhibitory effect of the compound was calculated by the change of the current before and after dosing, the IC50 value was fitted by the Hill equation. […] The results are shown in Table 33 and Table 34, respectively.
For orientation: The patch-clamp technique gives a direct electrical read-out from membranes.

Data set [1] can be described thus: Metabolism stability test in liver microsomes. The class given is in vitro ADME. The settings on record: human liver microsomes. Here is the method:
Buffer A: 1 L solution of 100 mM potassium dihydrogen phosphate containing 1 mM EDTA (Sigma, V900157-100G) was prepared.
Buffer B: 1 L solution of 100 mM dipotassium hydrogen phosphate containing 1 mM EDTA was prepared.
Buffer C: 700 mL of buffer B was taken out and titrated with buffer A to pH 7.4.
2.1 10 μl of 10 mM compound to be tested and 10 μl of 10 mM ketanserin were taken out and 190 μl of pure acetonitrile was added to each of them to prepare 500 μM compound to be tested and ketanserin, respectively.
2.2 20 μl (20 mg/mL) of liver microsomes (Corning Lot. NO. 4133007) stock solution was added to 513.4 μl of buffer C on wet ice. 0.75 mg/mL liver microsomal solution was obtained.
2.3 1.5 μl of each of the above-mentioned compound to be tested and ketanserin solution was added to 498.5 μl of liver microsomal solution (0.7 5 mg/mL) respectively on wet ice. 1.5 μM mixed solution of compound to be tested and 1.5 μM mixed solution of ketanserin were obtained.
2.4 At the time points 0, 5, 15, 30, 45, and 60 min, 30 μl of the mixed solution of compound to be tested and 30 μl of the mixed solution of ketanserin were dispensed into the reaction plate on wet ice, respectively.
2.5 5 mg reduced coenzyme II (Roche, 10621706001) was weighed and dissolved in 1 mL of buffer C. 6 mM reduced coenzyme II solution was obtained. The reduced coenzyme II solution was dispensed into the reaction plate.
2.6 Imipramine was dissolved to give a 10 mM solution. 10 μl imipramine solution was added to 100 mL of blank acetonitrile to generate the internal reference.
2.7 At 0 min, 135 μL of iced acetonitrile (Merck (Lot. 1778229518)) containing the internal reference was added to each well and then 15 μL of buffer C was added.
2.8 The reaction plate was placed into a 37° C. water bath incubator for 5 min. In the reaction plate, 15 μL of reduced coenzyme II solution was added to each well to initiate the reaction, and the time keeping was started. At the time points of 5, 15, 30, 45, and 60 min, 135 μL of iced acetonitrile containing the internal reference was added to each well to terminate the reaction.
2.9 The reaction plate was sealed with an aluminum film, placed on a vibration mixer and shaken at 500 rpm for 5 min. The plate was then centrifuged in a centrifuge at 3750 rp for 15 min.
2.10 The sample was diluted with pure water in accordance with the ratio of 1:1 and detected by LC/MS. […]
Wherein, the K value and the proportional factor were calculated by those skilled in the art according to the methods described in the prior art and contained in the instructions of the liver microsome product.
On the technique in general: Liver microsomes are a subcellular fraction often used to study metabolism.

The next data set has as its target Nav1.2 (Homo sapiens, UniProt Q99250). Description: Selectivity for other ion channels: Nav1.2. It is filed as cell-based.

hNav1.7, sequence (Q15858 whole entry): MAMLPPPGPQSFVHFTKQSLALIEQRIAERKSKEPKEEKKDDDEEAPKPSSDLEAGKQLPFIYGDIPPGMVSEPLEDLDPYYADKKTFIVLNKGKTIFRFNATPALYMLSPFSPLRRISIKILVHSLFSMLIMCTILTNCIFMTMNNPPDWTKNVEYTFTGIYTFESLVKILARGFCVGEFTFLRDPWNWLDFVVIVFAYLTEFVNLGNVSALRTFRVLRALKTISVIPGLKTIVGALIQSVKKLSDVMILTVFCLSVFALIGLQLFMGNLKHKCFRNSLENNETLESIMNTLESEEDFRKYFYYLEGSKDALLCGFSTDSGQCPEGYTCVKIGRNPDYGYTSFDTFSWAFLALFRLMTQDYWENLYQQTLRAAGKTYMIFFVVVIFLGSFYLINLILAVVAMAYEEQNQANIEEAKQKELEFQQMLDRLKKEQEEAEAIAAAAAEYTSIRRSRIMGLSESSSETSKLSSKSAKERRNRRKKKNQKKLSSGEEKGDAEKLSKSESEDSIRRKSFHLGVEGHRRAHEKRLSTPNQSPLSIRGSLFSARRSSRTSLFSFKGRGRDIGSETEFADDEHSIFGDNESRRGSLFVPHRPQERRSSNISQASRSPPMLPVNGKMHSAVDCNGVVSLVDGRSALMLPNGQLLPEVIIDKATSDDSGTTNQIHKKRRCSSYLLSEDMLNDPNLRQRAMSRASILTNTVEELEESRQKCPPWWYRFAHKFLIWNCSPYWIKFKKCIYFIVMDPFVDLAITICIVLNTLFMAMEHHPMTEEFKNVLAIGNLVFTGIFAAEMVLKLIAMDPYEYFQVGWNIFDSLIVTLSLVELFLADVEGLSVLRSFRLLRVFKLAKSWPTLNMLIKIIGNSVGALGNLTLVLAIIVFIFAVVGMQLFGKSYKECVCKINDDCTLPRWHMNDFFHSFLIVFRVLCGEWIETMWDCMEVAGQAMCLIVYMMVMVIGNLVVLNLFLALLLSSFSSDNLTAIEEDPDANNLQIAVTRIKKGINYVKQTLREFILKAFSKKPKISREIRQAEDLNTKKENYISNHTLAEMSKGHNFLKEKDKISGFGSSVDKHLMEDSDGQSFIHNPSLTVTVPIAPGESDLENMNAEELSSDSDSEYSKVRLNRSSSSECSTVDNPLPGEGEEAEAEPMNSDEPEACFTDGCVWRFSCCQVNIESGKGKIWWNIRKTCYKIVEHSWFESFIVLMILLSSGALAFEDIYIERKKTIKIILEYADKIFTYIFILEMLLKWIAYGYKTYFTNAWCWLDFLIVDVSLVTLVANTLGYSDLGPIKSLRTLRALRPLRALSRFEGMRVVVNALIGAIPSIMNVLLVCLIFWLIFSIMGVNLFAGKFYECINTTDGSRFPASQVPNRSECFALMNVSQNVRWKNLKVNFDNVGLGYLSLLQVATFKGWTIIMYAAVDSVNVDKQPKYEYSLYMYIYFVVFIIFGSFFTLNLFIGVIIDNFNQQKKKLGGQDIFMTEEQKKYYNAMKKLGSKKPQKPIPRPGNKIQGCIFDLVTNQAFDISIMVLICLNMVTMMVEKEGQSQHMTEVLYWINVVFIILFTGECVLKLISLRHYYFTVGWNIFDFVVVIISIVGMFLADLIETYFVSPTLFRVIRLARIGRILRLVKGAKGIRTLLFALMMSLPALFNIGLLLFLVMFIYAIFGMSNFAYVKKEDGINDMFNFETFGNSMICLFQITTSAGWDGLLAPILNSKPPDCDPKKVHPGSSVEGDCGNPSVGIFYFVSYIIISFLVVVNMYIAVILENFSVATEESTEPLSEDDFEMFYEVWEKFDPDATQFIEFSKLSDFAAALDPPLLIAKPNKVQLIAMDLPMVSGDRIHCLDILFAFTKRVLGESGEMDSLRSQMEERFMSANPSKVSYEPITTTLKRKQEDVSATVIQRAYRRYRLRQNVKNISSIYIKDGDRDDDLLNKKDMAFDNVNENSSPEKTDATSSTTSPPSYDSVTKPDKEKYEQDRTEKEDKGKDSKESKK
Nav1.8, sequence (Q9Y5Y9 whole entry): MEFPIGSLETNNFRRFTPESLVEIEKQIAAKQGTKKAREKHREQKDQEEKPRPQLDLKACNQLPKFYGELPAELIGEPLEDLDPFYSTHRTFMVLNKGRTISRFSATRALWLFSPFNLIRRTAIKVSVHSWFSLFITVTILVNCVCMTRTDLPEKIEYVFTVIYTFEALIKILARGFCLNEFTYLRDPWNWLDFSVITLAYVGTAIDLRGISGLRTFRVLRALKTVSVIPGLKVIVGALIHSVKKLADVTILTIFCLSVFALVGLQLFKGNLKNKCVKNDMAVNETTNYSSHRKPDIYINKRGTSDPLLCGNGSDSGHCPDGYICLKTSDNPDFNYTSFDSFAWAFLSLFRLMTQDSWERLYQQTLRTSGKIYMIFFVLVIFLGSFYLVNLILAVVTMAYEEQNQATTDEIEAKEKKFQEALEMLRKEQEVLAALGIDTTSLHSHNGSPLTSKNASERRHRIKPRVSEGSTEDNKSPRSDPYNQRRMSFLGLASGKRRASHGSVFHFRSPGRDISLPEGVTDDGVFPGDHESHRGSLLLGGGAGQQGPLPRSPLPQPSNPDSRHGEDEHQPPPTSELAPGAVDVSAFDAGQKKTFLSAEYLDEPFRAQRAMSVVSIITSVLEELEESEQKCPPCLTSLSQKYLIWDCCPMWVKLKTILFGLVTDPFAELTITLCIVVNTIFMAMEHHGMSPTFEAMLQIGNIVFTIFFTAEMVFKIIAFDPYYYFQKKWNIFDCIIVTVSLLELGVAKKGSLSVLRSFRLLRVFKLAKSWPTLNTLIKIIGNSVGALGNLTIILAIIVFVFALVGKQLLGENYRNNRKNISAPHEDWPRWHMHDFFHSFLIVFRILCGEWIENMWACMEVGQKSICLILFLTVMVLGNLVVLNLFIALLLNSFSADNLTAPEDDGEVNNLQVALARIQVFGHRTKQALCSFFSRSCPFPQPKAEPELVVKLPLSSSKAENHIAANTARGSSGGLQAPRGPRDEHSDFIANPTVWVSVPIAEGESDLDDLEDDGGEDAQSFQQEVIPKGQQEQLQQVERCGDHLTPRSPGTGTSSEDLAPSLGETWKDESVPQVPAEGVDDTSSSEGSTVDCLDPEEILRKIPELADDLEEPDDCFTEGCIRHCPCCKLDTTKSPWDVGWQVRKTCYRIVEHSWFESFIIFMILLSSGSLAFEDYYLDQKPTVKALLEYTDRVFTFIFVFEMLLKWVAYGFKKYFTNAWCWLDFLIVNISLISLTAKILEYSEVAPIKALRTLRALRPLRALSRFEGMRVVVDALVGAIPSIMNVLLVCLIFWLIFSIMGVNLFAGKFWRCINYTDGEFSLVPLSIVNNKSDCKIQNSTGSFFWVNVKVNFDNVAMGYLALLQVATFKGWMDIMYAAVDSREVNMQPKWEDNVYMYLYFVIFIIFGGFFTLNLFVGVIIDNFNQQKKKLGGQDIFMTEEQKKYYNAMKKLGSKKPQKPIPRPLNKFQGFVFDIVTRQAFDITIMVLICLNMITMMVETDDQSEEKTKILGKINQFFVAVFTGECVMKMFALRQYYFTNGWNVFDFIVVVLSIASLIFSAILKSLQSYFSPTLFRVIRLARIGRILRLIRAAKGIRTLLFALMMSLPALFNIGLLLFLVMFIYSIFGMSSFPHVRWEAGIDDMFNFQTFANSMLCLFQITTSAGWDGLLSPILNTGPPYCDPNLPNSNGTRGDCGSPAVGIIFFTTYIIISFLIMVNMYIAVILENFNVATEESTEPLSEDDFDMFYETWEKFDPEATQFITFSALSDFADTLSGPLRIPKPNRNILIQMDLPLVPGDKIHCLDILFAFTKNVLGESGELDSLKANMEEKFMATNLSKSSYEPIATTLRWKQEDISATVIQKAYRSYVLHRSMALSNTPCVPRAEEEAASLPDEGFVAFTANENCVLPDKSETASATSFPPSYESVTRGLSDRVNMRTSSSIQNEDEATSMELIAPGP

At Nav1.8, `Cc1cc(N2CCN(Cc3cc(F)c(C(=O)NS(=O)(=O)C4CC4)cc3Cl)CC2)ccc1Cl` [the free base of formula X compound, 5-chloro-4-((4-(4-chloro-3-methylphenyl)piperazin-1-yl)methyl)-N-(cyclopropylsulfonyl)-2-fluorobenzamide] returned an IC50 of 18900 nM. Besides, the “inhibitory activity against Nav1.7” value against hNav1.7 was “higher inhibitory activity”. Besides, on hNav1.7 (read-out: Inhibition of Nav1.7, 100 nM(%)), the inhibition at 0.1 µM was found to be 86.9%. At hNav1.7 (read-out: Inhibition of Nav1.7, 1000 nM(%)), the inhibition at 1 µM came out at 97.7%. Besides, in data set [1], the “Clearance ratio” value came to 20.12 mL/min/kg and the “metabolic stability” value is on record as “good metabolic stability”. The compound further displayed an IC50 against Nav1.2 of 9600 nM.
